US10047051B2, “Substituted pyridines and method of use” (AbbVie S.á{acute over (.)}r.l., priority 2015, dated 2018)
pEC50: −log10 of the molar value.

Key:
Format in all cases: cell-based
CFTR ΔF508 mutant = target: T1, CFTR ΔF508 mutant (Homo sapiens, UniProt P13569, DEL508-508); test: YFP-halide influx assay for the CFTR-ΔF508 mutation (CFBE41o- cells); conditions: forskolin 10.67 μM; for pEC50: from (1−F/F0) vs concentration plot
T1 construct: expressed in transfected cells; host or cells: CFBE41o- cells, adenoviral transduction
T1 sequence (P13569 with tags, fused parts or gaps DEL508-508): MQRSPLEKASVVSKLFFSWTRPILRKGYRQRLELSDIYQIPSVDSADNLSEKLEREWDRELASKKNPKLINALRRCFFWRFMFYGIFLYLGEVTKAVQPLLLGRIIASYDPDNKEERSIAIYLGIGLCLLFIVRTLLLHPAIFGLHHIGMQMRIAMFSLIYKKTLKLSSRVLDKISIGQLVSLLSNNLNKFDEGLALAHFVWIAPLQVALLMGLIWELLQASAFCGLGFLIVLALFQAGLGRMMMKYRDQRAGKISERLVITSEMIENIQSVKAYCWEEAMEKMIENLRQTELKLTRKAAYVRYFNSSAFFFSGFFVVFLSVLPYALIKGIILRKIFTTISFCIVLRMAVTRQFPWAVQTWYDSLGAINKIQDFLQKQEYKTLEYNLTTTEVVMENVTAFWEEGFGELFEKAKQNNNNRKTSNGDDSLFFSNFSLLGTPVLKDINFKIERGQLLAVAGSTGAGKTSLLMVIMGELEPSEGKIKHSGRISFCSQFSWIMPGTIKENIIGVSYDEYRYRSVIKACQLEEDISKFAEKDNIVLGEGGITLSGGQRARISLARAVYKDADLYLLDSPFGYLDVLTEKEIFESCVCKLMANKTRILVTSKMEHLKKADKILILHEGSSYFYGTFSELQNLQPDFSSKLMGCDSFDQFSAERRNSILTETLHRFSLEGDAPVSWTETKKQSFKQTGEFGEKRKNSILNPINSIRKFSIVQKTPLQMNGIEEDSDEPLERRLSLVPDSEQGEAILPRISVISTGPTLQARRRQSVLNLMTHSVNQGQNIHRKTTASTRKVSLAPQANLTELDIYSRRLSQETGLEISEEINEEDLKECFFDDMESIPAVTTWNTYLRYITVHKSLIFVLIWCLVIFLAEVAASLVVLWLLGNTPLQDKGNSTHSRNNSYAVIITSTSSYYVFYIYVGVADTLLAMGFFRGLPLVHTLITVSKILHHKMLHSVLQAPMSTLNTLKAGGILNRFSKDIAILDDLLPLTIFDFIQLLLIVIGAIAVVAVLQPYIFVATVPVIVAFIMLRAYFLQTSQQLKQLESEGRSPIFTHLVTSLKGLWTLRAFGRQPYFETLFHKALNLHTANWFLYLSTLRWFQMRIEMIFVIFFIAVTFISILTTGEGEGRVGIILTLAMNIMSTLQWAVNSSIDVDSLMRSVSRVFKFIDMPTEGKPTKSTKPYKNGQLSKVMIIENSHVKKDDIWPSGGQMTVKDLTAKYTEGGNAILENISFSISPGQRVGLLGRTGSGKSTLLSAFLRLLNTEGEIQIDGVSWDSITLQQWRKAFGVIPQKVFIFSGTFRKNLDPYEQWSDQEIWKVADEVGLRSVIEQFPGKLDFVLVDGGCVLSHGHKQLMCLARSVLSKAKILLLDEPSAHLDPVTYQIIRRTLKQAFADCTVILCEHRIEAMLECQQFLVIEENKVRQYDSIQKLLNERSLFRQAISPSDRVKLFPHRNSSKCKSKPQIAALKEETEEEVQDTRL
Procedure, shortened: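 EC50 derived from plotting 1−F/F0 (fluorescence 36 s after iodide injection over pre-injection value) against compound concentration. Cells: CFBE41o- transduced with ΔF508-CFTR and YFP quench reporter, corrected 24 h at 27° C or by a CFTR modulator at 37° C.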

CFTR-S549N = target: T2, CFTR-S549N (Homo sapiens, UniProt P13569, S549N); test: YFP-halide influx assay for the CFTR-S549N; set-up: % Activation: concentration or dose not given beside the values
T2 construct: expressed in transfected cells
T2 sequence (P13569 whole entry S549N): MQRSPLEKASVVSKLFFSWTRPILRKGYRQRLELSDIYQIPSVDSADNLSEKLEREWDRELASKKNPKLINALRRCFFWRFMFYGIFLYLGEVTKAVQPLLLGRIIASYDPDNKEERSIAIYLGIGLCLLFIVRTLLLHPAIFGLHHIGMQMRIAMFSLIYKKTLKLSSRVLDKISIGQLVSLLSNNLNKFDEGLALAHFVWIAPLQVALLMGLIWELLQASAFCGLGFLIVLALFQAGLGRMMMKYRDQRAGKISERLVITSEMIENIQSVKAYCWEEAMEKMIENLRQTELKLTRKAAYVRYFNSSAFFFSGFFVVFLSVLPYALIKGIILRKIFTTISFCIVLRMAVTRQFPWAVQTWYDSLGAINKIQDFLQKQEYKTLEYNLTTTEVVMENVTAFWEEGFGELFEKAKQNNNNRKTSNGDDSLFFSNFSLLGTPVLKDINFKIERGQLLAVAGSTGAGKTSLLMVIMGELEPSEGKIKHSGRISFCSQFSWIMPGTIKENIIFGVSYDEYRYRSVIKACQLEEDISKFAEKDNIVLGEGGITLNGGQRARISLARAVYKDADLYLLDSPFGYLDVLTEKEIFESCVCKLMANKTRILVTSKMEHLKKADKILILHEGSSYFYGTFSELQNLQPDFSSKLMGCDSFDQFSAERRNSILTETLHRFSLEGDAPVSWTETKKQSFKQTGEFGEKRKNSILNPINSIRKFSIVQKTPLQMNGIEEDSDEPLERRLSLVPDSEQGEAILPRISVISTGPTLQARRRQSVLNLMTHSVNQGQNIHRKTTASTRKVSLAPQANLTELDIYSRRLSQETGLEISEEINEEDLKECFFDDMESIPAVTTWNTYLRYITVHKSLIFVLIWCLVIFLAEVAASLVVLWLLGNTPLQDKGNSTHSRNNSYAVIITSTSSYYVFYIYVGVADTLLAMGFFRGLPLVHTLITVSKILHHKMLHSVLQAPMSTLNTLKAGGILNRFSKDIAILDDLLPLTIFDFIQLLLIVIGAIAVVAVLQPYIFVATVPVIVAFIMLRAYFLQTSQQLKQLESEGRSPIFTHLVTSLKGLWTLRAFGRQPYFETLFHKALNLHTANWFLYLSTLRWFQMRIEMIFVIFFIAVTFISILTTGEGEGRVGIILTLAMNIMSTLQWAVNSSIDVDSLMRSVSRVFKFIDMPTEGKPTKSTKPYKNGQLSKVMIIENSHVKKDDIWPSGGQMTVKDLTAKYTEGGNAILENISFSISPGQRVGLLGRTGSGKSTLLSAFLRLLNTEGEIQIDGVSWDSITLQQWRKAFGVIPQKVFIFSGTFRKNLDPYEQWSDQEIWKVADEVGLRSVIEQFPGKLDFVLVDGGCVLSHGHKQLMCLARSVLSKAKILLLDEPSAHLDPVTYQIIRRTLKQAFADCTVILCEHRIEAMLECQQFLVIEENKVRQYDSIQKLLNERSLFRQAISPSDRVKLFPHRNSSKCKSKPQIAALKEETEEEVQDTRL
From the text: (§1) The YFP halide influx assay measured the functionality of the cystic fibrosis Transmembrane Conductance regulator (CFTR) channels. The assay was used to evaluate the capacity of compounds to increase the channel opening of existing mutant CFTR channels in the membrane. It makes use of the observation that the yellow fluorescent protein (YFP) variant YFP H148Q, I152L, F47L has its fluorescence substantially quenched by halide ions like Cl^− and I^− (Galietta, L. J. V., Haggie, P. M., Verkman, A. S., 2001. Green fluorescent protein-based halide indicators with improved chloride and iodide affinities. FEBS Lett. 499, 220-224. doi:10.1016/S0014-5793(01)02561-3).
(§2) For this purpose, HEK293-cells were seeded in 96 well plates. During seeding, the cells were reverse-transfected with plasmid vectors that direct the expression of the CFTR G551D mutant and of the YFP reporter. Cells were incubated at 37° C., 5% CO2 for 24 hours so as to allow for sufficient expression of the CFTR protein.
(§3) The I^−-induced quenching of fluorescence was recorded immediately after injection of I^− for 7 seconds. The capacity of a compound to increase the channel opening was directly correlated with the decrease in fluorescence, and was expressed as (1−(fluorescence after 7 seconds (F)/fluorescence before injection (F0))) and an EC50 was derived from a (1−F/F0) vs compound concentration plot.
(§4) Similar YHA assays were developed for other channel gating defective or channel conductance defective CFTR mutants to determine effect of compound on channel activity. Examples of mutants are G178R, G1349D, S549N, R117H, R334W. This assay is also used for additional class I CFTR mutants, including G542X, W1282X; class II mutants including N1303K, and for class III mutants including S1251N; or wild-type CFTR.

CFTR-G1349D = target: T3, CFTR-G1349D (Homo sapiens, UniProt P13569, G1349D); test: YFP-halide influx assay for the CFTR-G1349D
T3 construct: expressed in transfected cells
T3 sequence (P13569 whole entry G1349D): as the sequence (P13569 whole entry S549N) above, with N549S, G1349D counted along it
From the text: as §1, §2, §3, §4

CFTR-G178R = target: T4, CFTR-G178R (Homo sapiens, UniProt P13569, G178R); test: YFP-halide influx assay for the CFTR-G178R
T4 construct: expressed in transfected cells
T4 sequence (P13569 whole entry G178R): as the sequence (P13569 whole entry S549N) above, with G178R, N549S counted along it
From the text: as §1, §2, §3, §4

CFTR-R117H = target: T5, CFTR-R117H (Homo sapiens, UniProt P13569, R117H); test: YFP-halide influx assay for the CFTR-R117H
T5 construct: expressed in transfected cells
T5 sequence (P13569 whole entry R117H): as the sequence (P13569 whole entry S549N) above, with R117H, N549S counted along it
From the text: as §1, §2, §3, §4

CFTR G551D mutant = target: T6, CFTR G551D mutant (Homo sapiens, UniProt P13569, G551D); test: YFP-halide influx assay for the CFTR-G551D mutation (HEK293 cells); conditions: forskolin 10.67 μM
T6 construct: expressed in transfected cells; host or cells: HEK293 cells, reverse transfection with plasmids
T6 sequence (P13569 whole entry G551D): as the sequence (P13569 whole entry S549N) above, with N549S, G551D counted along it
Procedure, shortened: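 Channel opening read as I⁻-driven quenching of a YFP H148Q/I152L/F47L reporter over 7 s post-injection, expressed as 1−F/F0 and fitted against concentration for EC50. Cells were HEK293 co-transfected at seeding with G551D CFTR plus reporter, then grown 24 h at 37 °C, 5% CO2.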

| SMILES | % Activation (CFTR ΔF508 mutant) [%] | pEC50 (CFTR ΔF508 mutant) | % Activation (CFTR-S549N) [%] | pEC50 (CFTR-S549N) | % Activation (CFTR-G1349D) [%] | pEC50 (CFTR-G1349D) | % Activation (CFTR-G178R) [%] | pEC50 (CFTR-G178R) | % Activation (CFTR-R117H) [%] | pEC50 (CFTR-R117H) | % Activation (CFTR G551D mutant) [%] | pEC50 (CFTR G551D mutant) |
| --- | --- | --- | --- | --- | --- | --- | --- | --- | --- | --- | --- | --- |
| Nc1cc(S(=O)(=O)c2ccc(OC(F)(F)F)cc2)cnc1C(=O)N[C@@H]1COC[C@H]1O (racemic) [Compound 74, rac-3-amino-N-[(3R,4S)-4-hydroxytetrahydrofuran-3-yl]-5-{[4-(trifluoromethoxy)phenyl]sulfonyl}pyridine-2-carboxamide] | 110.0 | 7.76 | 91.4 | 6.25 | 86.8 | 6.29 | 84.3 | 6.46 | 100.0 | 6.06 | 65.0 | 6.08 |
| CC(C)(C)C(O)CNC(=O)c1ncc(S(=O)(=O)c2ccc(OC(F)(F)F)cc2)cc1N (stereo not drawn) [Compound 16, 3-amino-N-(2-hydroxy-3,3-dimethylbutyl)-5-{[4-(trifluoromethoxy)phenyl]sulfonyl}pyridine-2-carboxamide] | 106.5 | 7.80 | 114.0 | < 5.48 | 99.6 | 6.16 | 102.0 | 6.00 | 112.0 | 6.37 | 96.2 | 5.78 |
| Nc1cc(S(=O)(=O)c2ccc(F)cc2)cnc1C(=O)N1CC(O)(C(F)(F)F)C1 [Compound 176, {3-amino-5-[(4-fluorophenyl)sulfonyl]pyridin-2-yl}[3-hydroxy-3-(trifluoromethyl)azetidin-1-yl]methanone] | 93.4 | 9.00 | 92.0 | 7.59 | 72.8 | 7.53 | 79.1 | 7.90 | 111.0 | 7.64 | 46.0 | 7.16 |
| Nc1cc(S(=O)(=O)c2ccc(OC(F)(F)F)cc2)cnc1C(=O)N1CC(O)(C(F)(F)F)C1 [Compound 79, (3-amino-5-{[4-(trifluoromethoxy)phenyl]sulfonyl}pyridin-2-yl)[3-hydroxy-3-(trifluoromethyl)azetidin-1-yl]methanone] | 99.5 | 8.48 | 88.09 | 7.35 | 83.08 | 7.21 | 74.5 | 7.50 | 103.1 | 7.65 | 48.9 | 6.59 |
| Nc1cc(S(=O)(=O)c2ccccc2OC(F)(F)F)cnc1C(=O)NCCO [Compound 75, 3-amino-N-(2-hydroxyethyl)-5-{[2-(trifluoromethoxy)phenyl]sulfonyl}pyridine-2-carboxamide] | 121.0 | 8.12 |  | 6.60 | 98.7 | 6.55 | 94.3 | 6.49 | 98.4 | 6.33 | 68.5 | 5.82 |
| COCC(O)CNC(=O)c1ncc(S(=O)(=O)c2ccccc2OC(F)(F)F)cc1N (stereo not drawn) [Compound 80, 3-amino-N-(2-hydroxy-3-methoxypropyl)-5-{[2-(trifluoromethoxy)phenyl]sulfonyl}pyridine-2-carboxamide] | 102.0 | 8.49 | 108.5 | 6.84 | 98.43 | 6.93 | 95.08 | 7.09 | 111.5 | 6.39 | 95.1 | 6.02 |
| CCC1(F)CN(C(=O)c2ncc(S(=O)(=O)c3ccc(OC(F)(F)F)cc3)cc2N)C1 [Compound 130, (3-amino-5-{[4-(trifluoromethoxy)phenyl]sulfonyl}pyridin-2-yl)(3-ethyl-3-fluoroazetidin-1-yl)methanone] | 93.9 | 6.99 |  |  | 55.4 | 6.15 |  |  | 77.6 | 6.24 | 78.3 | 6.17 |
| Nc1cc(S(=O)(=O)c2ccc(OC(F)(F)F)cc2)cnc1C(=O)N[C@@H]1COCC[C@@H]1O (racemic) [Compound 33, rac-3-amino-N-[(3R,4S)-4-hydroxytetrahydro-2H-pyran-3-yl]-5-{[4-(trifluoromethoxy)phenyl]sulfonyl}pyridine-2-carboxamide] | 98.6 | 7.37 | 82.2 | 6.13 | 92.9 | 6.27 | 81.8 | 6.29 | 87.1 | 6.20 | 62.3 | 5.86 |
| Nc1cc(S(=O)(=O)c2ccc(C(F)(F)F)cc2)cnc1C(=O)NC[C@@H](O)C(F)(F)F [Compound 63, 3-amino-N-[(2R)-3,3,3-trifluoro-2-hydroxypropyl]-5-{[4-(trifluoromethyl)phenyl]sulfonyl}pyridine-2-carboxamide] | 102.0 | 8.51 |  |  | 82.8 | 6.59 |  |  | 89.3 | 6.82 | 60.8 | 6.58 |

Now from value to compound:

| % Activation (CFTR ΔF508 mutant) [%] | pEC50 (CFTR ΔF508 mutant) | % Activation (CFTR-S549N) [%] | pEC50 (CFTR-S549N) | % Activation (CFTR-G1349D) [%] | pEC50 (CFTR-G1349D) | % Activation (CFTR-G178R) [%] | pEC50 (CFTR-G178R) | % Activation (CFTR-R117H) [%] | pEC50 (CFTR-R117H) | % Activation (CFTR G551D mutant) [%] | pEC50 (CFTR G551D mutant) | SMILES |
| --- | --- | --- | --- | --- | --- | --- | --- | --- | --- | --- | --- | --- |
| 103.4 | 7.44 | 55.9 | 6.40 | 62.9 | 5.87 | 63.9 | 6.03 | 92.1 | 6.12 | 51.8 | 5.52 | Nc1cc(S(=O)(=O)c2ccc(C(F)(F)F)cc2)cnc1C(=O)NCCO [Compound 217, 3-amino-N-(2-hydroxyethyl)-5-{[4-(trifluoromethyl)phenyl]sulfonyl}pyridine-2-carboxamide] |
| 103.3 | 7.28 | 88.2 | 6.59 | 83.9 | 6.89 | 98.4 | 6.52 | 91.3 | 6.35 | 59.2 | 6.35 | Nc1cc(S(=O)(=O)c2ccc(C(F)(F)F)cc2)cnc1C(=O)N1CC(OCC(F)F)C1 [Compound 231, (3-amino-5-{[4-(trifluoromethyl)phenyl]sulfonyl}pyridin-2-yl)[3-(2,2-difluoroethoxy)azetidin-1-yl]methanone] |
| 102.5 | 8.37 | 105.0 | 7.13 | 91.0 | 6.76 | 97.2 | 6.83 | 126.0 | 6.65 | 92.6 | 5.95 | Nc1cc(S(=O)(=O)c2ccc(F)cc2)c(-c2ccc(F)cc2)nc1C(=O)NC[C@@H](O)C(F)(F)F [Compound 259, 3-amino-6-(4-fluorophenyl)-5-[(4-fluorophenyl)sulfonyl]-N-[(2R)-3,3,3-trifluoro-2-hydroxypropyl]pyridine-2-carboxamide] |
| 98.2 | 8.26 | 75.6 | 7.04 | 79.8 | 6.83 | 79.3 | 6.96 | 74.2 | 6.81 | 44.7 | 6.62 | Nc1cc(S(=O)(=O)c2ccc(OC(F)(F)F)cc2)cnc1C(=O)Nc1cc[nH]n1 [Compound 291, 3-amino-N-(1H-pyrazol-3-yl)-5-{[4-(trifluoromethoxy)phenyl]sulfonyl}pyridine-2-carboxamide] |
